For assay [1], the target named is T1, Pendrin (Homo sapiens) (UniProt O43511).
T1 sequence (whole entry): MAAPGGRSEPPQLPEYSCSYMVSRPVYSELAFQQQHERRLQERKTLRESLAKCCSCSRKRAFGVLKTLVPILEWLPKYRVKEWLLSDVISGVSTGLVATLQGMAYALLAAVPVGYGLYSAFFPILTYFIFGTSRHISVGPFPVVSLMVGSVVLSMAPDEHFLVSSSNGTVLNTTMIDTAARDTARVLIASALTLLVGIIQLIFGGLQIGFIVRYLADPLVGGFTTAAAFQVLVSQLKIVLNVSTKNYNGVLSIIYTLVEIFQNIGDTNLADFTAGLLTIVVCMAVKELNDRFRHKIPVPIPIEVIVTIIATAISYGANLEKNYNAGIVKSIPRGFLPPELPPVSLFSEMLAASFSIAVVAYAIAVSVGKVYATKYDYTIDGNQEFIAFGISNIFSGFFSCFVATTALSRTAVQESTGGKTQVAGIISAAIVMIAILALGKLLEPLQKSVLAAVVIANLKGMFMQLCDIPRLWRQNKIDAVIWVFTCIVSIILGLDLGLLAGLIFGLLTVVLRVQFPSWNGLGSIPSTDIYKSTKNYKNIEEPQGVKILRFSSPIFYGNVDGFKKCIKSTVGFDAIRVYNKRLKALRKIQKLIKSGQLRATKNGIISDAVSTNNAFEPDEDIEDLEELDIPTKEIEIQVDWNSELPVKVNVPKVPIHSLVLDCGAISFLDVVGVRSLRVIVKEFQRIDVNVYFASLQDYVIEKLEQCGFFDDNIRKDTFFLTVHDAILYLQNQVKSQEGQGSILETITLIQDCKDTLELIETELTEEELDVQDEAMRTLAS
In words: Inhibition of human pendrin expressed in FRT cells co-expressing EYFP-HIF assessed as reduction in pendrin-mediated anion exchange at 25 uM incubated for 10 mins by pH-sensitive fluorescent probe BCECF-AM based fluorescence assay relative to control. It counts as cell-based.

The target in assay [2] is T1, Pendrin (Homo sapiens). In words: Inhibition of human pendrin expressed in FRT cells co-expressing EYFP-HIF assessed as reduction in pendrin-mediated anion exchange at 100 uM incubated for 10 mins by pH-sensitive fluorescent probe BCECF-AM based fluorescence assay relative to control. It counts as cell-based.

The inhibition is how much of the control response was suppressed.

The source made the active and inactive calls. The calls are words filed in the database; no cut-off is given here. Some results are limits rather than exact numbers.

As for `NS(=O)(=O)c1cc(C(=O)O)c(NCc2ccco2)cc1Cl`, the inhibition entry in assay [1] is “inactive”.

Consider `O=C(O)c1cccnc1Nc1cccc(C(F)(F)F)c1`, for which the inhibition in assay [2] was less than 40%.

Regarding `Cn1nc(COc2ccc(F)cc2)c2c1CCN(C(=O)Nc1cccc(Cl)c1)C2`, the inhibition in assay [1] was 60%.

Source of the values: ChEMBL document CHEMBL4417636, “Small molecule inhibitors of pendrin ion exchange and pharmaceutical compositions” (2017).
